Marks after values point to notes of the source that are not given here.
Legend:
[1] = tested on: Mouse embryonic fibroblasts (MEFs); assay: Reprogramming of mouse embryonic fibroblasts to iPS cells (Nanog-positive colonies); format: cell-based; settings: for Effect on reprogramming / Fold increase in reprogramming / Nanog-positive colony formation vs control: 3-F; for Direction and grade of change in reprogramming efficiency (arrows) / Reprogramming efficiency (Nanog-positive colonies / infected cells) / Fold increase in reprogramming / Nanog-positive colony formation vs control: MEFs
Description: (§1) VSV-G viruses were produced in HEK293T cells. For pMX-based and pMSCV-based retroviruses, vectors were transfected using CaPO4 or lipofectamin, following the manufacturers' directions. One day after transfection, culture medium was changed to new medium. For lentivirus, pBOBI-based^34 or pLVTHM-based^37 vectors were transfected by Lipofectamine™ 2000 (Invitrogen) according to the manufacturer's protocol. Six hours after transfection, the DNA-lipofectamine-complex was removed and the medium was replaced the next day. Two days after transfection, the supernatant containing viruses was collected and filtered through a 0.45 μm filter. Mouse iPS cells were induced as previously described^38,39. Briefly, mouse embryonic fibroblasts (passage 3 to 5) were infected (day 0) with pMX-based retroviruses together with pLVTHM-based lentivirus for shRNAs or pBOBI-based lentivirus for Bcl-2. On day 2, cells were passed onto new gelatin-coated plates. Medium was changed every 2 days. On day 12 to 14, cells were fixed for immunofluorescence study. For the Nutlin3a experiments, cells were treated starting from day 4. Reprogramming of human embryonic fibroblasts (IMR90) was done as previously described^2′^3. Briefly, IMR90 fibroblasts (passage 7 to 9) were infected (day 0) with pMSCV-based retroviruses+pLVTHM-based lentiviruses for p53 shRNA. On day 4 or 5, cells were passed onto feeder MEFs. Medium was changed every day. Around 3 weeks after infection, cells were fixed for immunofluorescence studies. Reprogramming of human primary keratinocytes was carried out essentially as described^6. Cells were co-infected with retroviral supernatants containing 3 or 4 reprogramming factors and p53-DD or GFP at a 1:2 ratio. To assess the reprogramming efficiency, cells were trypsinized 3 days after retroviral infection and 10^4 cells were plated onto 6-cm tissue culture dishes on top of irradiated human foreskin fibroblasts with hES cell medium.
The number of Nanog-positive colonies was calculated after immunostaining at d12-14. The total number of Nanog-positive colonies was divided by the number of infected cells. Error numbers indicate s.d. The term “s.d.” refers in the customary sense to standard deviation. The term “s.e.” refers in the customary sense to standard error. Student's t-tests were performed for statistical analysis. p=0.007 (p53-shRNA vs mock, n=4 in each), p=0.0006 (p53−/− vs WT, n=3 in each), p=0.009 (p21-shRNA vs mock, n=4 in each), p=0.0005 (Arf-shRNA vs mock, n=3 in each), p=0.028 (Arf/Ink4a-shRNA vs mock, n=3 in each), p=0.010 (Ctl(solvent) vs Nutlin-3(10 μM), n=3 in each), p=0.045 (3SA/3SA vs WT, n=3 in each), p=0.022 (Bcl-2 vs mock, n=4 in each), and p=0.012 (c-Myc versus mock, n=4 in each).

[2] = tested on: human primary keratinocytes; assay: Reprogramming of human primary keratinocytes (AP-positive hES-like colonies); format: cell-based
Description: FIG. 5: Downregulation of p53 activity increases reprogramming efficiency of human somatic cells. (FIG. 5a) Human embryonic fibroblasts were infected with retroviruses encoding Oct4/Sox2/Klf4 (3-F) or Oct4/Sox2/Klf4/c-Myc (4-F) factors in combination with lentiviruses expressing control- or p53-shRNA. Emerging colonies of iPS cells were visualized by immunostaining with anti-Nanog antibody using an ABC method. […] (FIG. 5b) Human primary keratinocytes were co-infected with 4-F and retroviruses expressing GFP or p53-DD. 5×10^4 infected cells were plated on 10-cm dishes and stained for AP activity after 2 weeks. […] Actin was used as a loading control. (FIG. 5c) The bars represent the average number of iPS-like colonies obtained from 10^4 keratinocytes reprogrammed with 3-F or 4-F and retroviruses encoding GFP or p53-DD, in the absence or presence of the p53 agonist Nutlin3a (n=3). iPS-like colonies were scored as having hES-like morphology and positive AP staining. Due to the numerous colonies generated in 4-F p53-DD keratinocytes, quantification was done using 10^4 cells. […]

Arf = Arf level after shRNA in MEFs (Western blot); format: cell-based, mouse; settings: lentiviral shRNA, day 4
Description: FIG. 2: Modulation of p53 activity alters reprogramming efficiency. (FIG. 2a) Fold change in the number of 3-F induced Nanog-positive colonies by Arf shRNA compared to control shRNA (n=3). Protein levels of Arf, Ink4a and α-Tubulin (loading control) on day 4 after infection are shown. (FIG. 2b) Fold change in the number of 3-F induced Nanog-positive colonies by Arf/Ink4a shRNA compared to control shRNA (n=3). Protein levels of Arf, Ink4a and α-Tubulin (loading control) on day 4 after infection are shown. (FIG. 2c) MEFs isolated from wild type (+/+), Mdmx-3SA heterozygous (3SA/+) and homozygous (3SA/3SA) mice were exposed to 5Gy of gamma-irradiation for 4 hours. p21 mRNA levels were analyzed by QPCR. Results were normalized to untreated WT samples for fold induction. (FIG. 2d) 3-F induced Nanog-positive colonies in wild type (+/+) and homozygous (3SA/3SA) mice (n=3).
Cells were washed once in PBS and lysed in 2×SDS-PAGE sample buffer without 2-mercaptoethanol and glycerol. Lysates were briefly sonicated and cleared by centrifugation. The protein concentration was determined by a BCA Protein Assay Kit (Thermo Scientific). Lysates were then mixed with 2-mercaptoethanol, BPB and glycerol, and boiled. Equal amounts of proteins were subjected to SDS-PAGE. […] Quantitative PCR was performed using SYBR® GREEN PCR Master Mix (Applied Biosystems).

p21 = p21 expression after shRNA in MEFs; format: cell-based, mouse; settings: lentiviral shRNA
Description: FIG. 1: Increased generation of iPS cells by blocking p53 and p21. (FIG. 1a) Mouse embryonic fibroblasts (MEFs) were infected by retroviruses encoding 3 transcription factors (Oct4/Sox2/Klf4), 2 factors (Oct4/Sox2), Klf4, c-Myc or GFP. Four days after infection, the protein levels of p53, Arf, and p21 were analyzed by Western Blotting. α-tubulin was used as a loading control. (FIG. 1b) Mouse embryonic fibroblasts (MEFs) were infected by retroviruses encoding three transcription factors (Oct4/Sox2/Klf4) in combination with mock, control shRNA (GFP) and p53 shRNA (#1 and #2). Emerging colonies of iPS cells were visualized by immunostaining with anti-Nanog antibody using an Avidin Biotin Complex (ABC) method. (FIG. 1c) The fold change in the number of Nanog-positive colonies compared to mock (n=4). For all figures in this study, error bars indicate s.d. (FIG. 1d) Effect of Nutlin 3a on the number of Nanog-positive colonies by 3 factors in combination with mock, p53, and p21 shRNA. Cells were treated by Nutlin 3a (0, 3, 10 μM) starting from day 4. […]
Cells were washed once in PBS and lysed in 2×SDS-PAGE sample buffer without 2-mercaptoethanol and glycerol. […] The protein concentration was determined by a BCA Protein Assay Kit (Thermo Scientific). […] Quantitative PCR was performed using SYBR® GREEN PCR Master Mix (Applied Biosystems).

[3] = tested on: human embryonic fibroblasts (HEFs, IMR90); assay: Reprogramming of human embryonic fibroblasts (Nanog- or Tra1-81-positive colonies); format: cell-based
Description: as §1, with “.” for “VSV-G viruses were produced in HEK293T cells.”
The number of Nanog- or Tral-81-positive colonies was calculated after immunostaining at dl 8-27. No colonies were observed from mock +4-F or 3-F cells in all trials. The total number of colonies was divided by the number of infected cells. Error numbers indicate s.d (n=4).

[4] = 3F (Oct4/Sox2/Klf4), d12-14, error = s.d.

## COc1ccc(C2=N[C@@H](c3ccc(Cl)cc3)[C@@H](c3ccc(Cl)cc3)N2C(=O)N2CCNC(=O)C2)c(OC(C)C)c1 [Nutlin3a]
[1]; 3-F MEFs with p53 reduced by most effective shRNA, 0, 3, 10 μM from day 4
  Effect on iPS cell formation: dose-dependent decrease
[1]; p53(+/+) MEFs
  Effect on reprogramming: dramatically reduced reprogramming
[1]; p53-null (−/−) MEFs
  Effect on reprogramming: did not have any effects
[1]; 3F, Nutlin-3 10 μM vs solvent
  Direction and grade of change in reprogramming efficiency (arrows): ↓↓
[1]; 3F, Nutlin-3 10 μM vs solvent, treated from day 4, error = s.d.
  Reprogramming efficiency (Nanog-positive colonies / infected cells): 0.007 + 0.008% vs 0.114 + 0.054%
[2]; 3-F or 4-F p53-DD expressing keratinocytes
  Effect on reprogramming: inability of Nutlin3a to reduce reprogramming
[2]; human keratinocytes, 3-F or 4-F
  Effect on reprogramming efficiency: markedly reduced the reprogramming efficiency

## Arf shRNA: shRNA sequence CACCGGAATCCTGGACCAG, SEQ ID NO: 5
[1]
  Fold increase in reprogramming / Nanog-positive colony formation vs control: approximately 2 fold
[1]; [4]
  Reprogramming efficiency (Nanog-positive colonies / infected cells): 0.163 ± 0.013% vs 0.085 + 0.083%
[1]; 3F, vs control
  Direction and grade of change in reprogramming efficiency (arrows): ↑
Arf
  Reduction of Arf levels: 2-4 fold

## Arf/Ink4a shRNA: shRNA sequence AATGGCTGGATTGTTTAAA, SEQ ID NO: 6
[1]; [4]
  Reprogramming efficiency (Nanog-positive colonies / infected cells): 0.366 ± 0.144% vs 0.114 + 0.054%
[1]; 3F, vs control
  Direction and grade of change in reprogramming efficiency (arrows): ↑↑

## p21 shRNA: shRNA sequence TTAGGACTCAACCGTAATA, SEQ ID NO: 4
[1]
  Fold increase in reprogramming / Nanog-positive colony formation vs control: approximately 3 fold
[1]; [4]
  Reprogramming efficiency (Nanog-positive colonies / infected cells): 0.359 ± 0.144% vs 0.114 + 0.054%
[1]; 3F, vs control
  Direction and grade of change in reprogramming efficiency (arrows): ↑↑↑
p21
  Reduction of p21 expression: 3-4 fold

## p53shRNA: lentiviral shRNA against human p53, sequence GACTCCAGTGGTAATCTAC, SEQ ID NO: 7 (lentiviral vector)
[3]; 3-F, Trial 1
  Actual number of Nanog-positive colonies: 10 colonies/3 × 10^4 cells (p53shRNA)
[3]; 3-F, Trial 2
  Actual number of Nanog-positive colonies: 2 colonies/1 × 10^4 cells (p53shRNA)
[3]; 3-F, average of 2 independent experiments
  Reprogramming efficiency of HEFs: 0.027% *
[3]; 4-F, Trial 1
  Actual number of Nanog-positive colonies: 86 colonies/2 × 10^4 cells (p53shRNA)
[3]; 4-F, Trial 2
  Actual number of Nanog-positive colonies: 13 colonies/2 × 10^4 cells (p53shRNA)
[3]; 4-F, Trial 3
  Actual number of Nanog-positive colonies: 19 colonies/2 × 10^4 cells (p53shRNA)
[3]; 4-F, Trial 4
  Actual number of Nanog-positive colonies: 4 colonies/2 × 10^4 cells (p53shRNA)
[3]; 4-F, ± s.d. (n=4)
  Reprogramming efficiency of HEFs: 0.153 ± 0.188%
